The conditions of data set [1]: mice; cited from earlier work. The source says: This feature is important when performing in vivo imaging and especially in the vasculature, whose signal can be easily contaminated by the blood pool because of partial volume errors. […] We further used the combination of in ...
A short description of data set [2]: [^68Ga]Ga-DOTATATE distribution in blood fractions (plasma vs cells). Conditions: control (N = 2) and athero4mo (N = 3) rabbits. Format: in vivo, New Zealand White rabbits. As to the method:
(§1) Adopting a translational approach, the rabbit studies were performed with the [^68Ga]Ga-labeled tracer, which is already being used in the clinic. [^68Ga]Ga-DOTATATE was purchased from Advanced Accelerator Applications (AAA, Millburn, NJ, USA). To determine its pharmacokinetics, three atherosclerotic rabbits and two healthy controls were injected with approximately 190 MBq of [^68Ga]Ga-DOTATATE. Venous blood was sampled at 1, 5, 10, 15, 20, 30, 60, 120, 180, 240 and 300 min after injection through the ear vein. Samples were weighed and gamma counted. Blood half-life data were fitted using a two-phase decay non-linear regression using GraphPad Prism v8.4.3 (Supplementary Table S1). To investigate the tracer blood distribution, blood samples were centrifuged at 2000 g for 15 min at 4 °C to determine the radioactivity concentration in the plasma and cellular fractions. To analyze [^68Ga]Ga-DOTATATE biodistribution, all rabbits were euthanized after the last imaging time-point using an injection of pentobarbital 100 mg/kg and exsanguination of the portal vein. Rabbits were extensively perfused with 1000 mL of saline. Following, tissues (blood, heart, aorta, liver, kidney, skeletal muscle, small and large intestine, fat, stomach, pancreas and bladder) were harvested, weighed and gamma counted.

Data set [3] can be described thus: Organ biodistribution of [^68Ga]Ga-DOTATATE by ex vivo gamma counting. The format is in vivo, New Zealand White rabbits. The settings on record: male, New Zealand White, rabbit, 190 MBq, total radioactivity, 200 min after tracer injection, median (IQR). As to the method:
as §1

Read-outs that look alike come from different tables or passages of the source.

Regarding `OC[C@H]1OC(O)[C@H]([18F])[C@@H](O)[C@@H]1O` (some centres unmarked) [[^18F]F-FDG, [^18F]F-fluorodeoxyglucose], in data set [1], the blood half-life was 5.1 min.
Turning to `C[C@@H](O)[C@H](NC(=O)[C@@H]1CSSC[C@H](NC(=O)[C@@H](Cc2ccccc2)NC(=O)CN2CCN(CC(=O)O)CCN(CC(=O)O)CCN(CC(=O)O)CC2)C(=O)N[C@@H](Cc2ccc(O)cc2)C(=O)N[C@H](Cc2c[nH]c3ccccc23)C(=O)N[C@@H](CCCCN)C(=O)N[C@@H]([C@@H](C)O)C(=O)N1)C(=O)O` [[^68Ga]Ga-DOTATATE, metal not drawn], the “distribution between plasma and cells” value in data set [2] is on record as “detected in plasma, rather than cells”. Moreover, the tissue uptake at 200 min in data set [3] (abdominal aorta, iv, male athero4mo rabbits, N = 9, read-out: Tissue radioactivity, abdominal aorta) was determined as 0.017 %ID/g; in data set [3] (abdominal aorta, iv, male control rabbits, N = 6, read-out: Tissue radioactivity, abdominal aorta) it was 0.006 %ID/g; in data set [3] (adrenal gland, iv, male athero4mo rabbits, N = 9, read-out: Tissue radioactivity, adrenal gland), 0.012 %ID/g; in data set [3] (adrenal gland, iv, male control rabbits, N = 6, read-out: Tissue radioactivity, adrenal gland), 0.003 %ID/g; in data set [3] (bladder, intravenous, male athero4mo rabbits, N = 9, read-out: Tissue radioactivity, bladder) it was 0.075 %ID/g; in data set [3] (bladder, intravenous, male control rabbits, N = 6, read-out: Tissue radioactivity, bladder), 0.053 %ID/g. Besides, the tissue uptake at 200 min in data set [3] (bone marrow, intravenous, male athero4mo rabbits, N = 9, read-out: Tissue radioactivity, bone marrow) is 0.006 %ID/g; in data set [3] (bone marrow, intravenous, male control rabbits, N = 6, read-out: Tissue radioactivity, bone marrow), 0.003 %ID/g; in data set [3] (fat, intravenous, male athero4mo rabbits, N = 9, read-out: Tissue radioactivity, fat) it was 0.002 %ID/g; in data set [3] (heart, iv, male athero4mo rabbits, N = 9, read-out: Tissue radioactivity, heart), 0.006 %ID/g; in data set [3] (heart, iv, male control rabbits, N = 6, read-out: Tissue radioactivity, heart), 0.003 %ID/g; in data set [3] (kidneys, iv, male athero4mo rabbits, N = 9, read-out: Tissue radioactivity, kidneys) it was 0.157 %ID/g. In addition, the tissue uptake at 200 min came out at 0.128 %ID/g in data set [3] (kidneys, iv, male control rabbits, N = 6, read-out: Tissue radioactivity, kidneys); 0.01 %ID/g in data set [3] (large intestine, iv, male athero4mo rabbits, N = 9, read-out: Tissue radioactivity, large intestine); 0.005 %ID/g in data set [3] (large intestine, iv, male control rabbits, N = 6, read-out: Tissue radioactivity, large intestine); 0.006 %ID/g in data set [3] (liver, intravenous, male athero4mo rabbits, N = 9, read-out: Tissue radioactivity, liver); 0.015 %ID/g in data set [3] (lungs, iv, male athero4mo rabbits, N = 9, read-out: Tissue radioactivity, lungs); 0.005 %ID/g in data set [3] (lungs, iv, male control rabbits, N = 6, read-out: Tissue radioactivity, lungs). In addition, the tissue uptake at 200 min worked out at 0.013 %ID/g in data set [3] (lymph node, iv, male athero4mo rabbits, N = 9, read-out: Tissue radioactivity, lymph node); 0.005 %ID/g in data set [3] (lymph node, iv, male control rabbits, N = 6, read-out: Tissue radioactivity, lymph node); 0.003 %ID/g in data set [3] (muscle, iv, male athero4mo rabbits, N = 9, read-out: Tissue radioactivity, muscle); 0.001 %ID/g in data set [3] (muscle, iv, male control rabbits, N = 6, read-out: Tissue radioactivity, muscle); 0.005 %ID/g in data set [3] (pancreas, intravenous, male control rabbits, N = 6, read-out: Tissue radioactivity, pancreas); 0.021 %ID/g in data set [3] (small intestine, iv, male athero4mo rabbits, N = 9, read-out: Tissue radioactivity, small intestine). Besides, the tissue uptake at 200 min in data set [3] (small intestine, iv, male control rabbits, N = 6, read-out: Tissue radioactivity, small intestine) came to 0.025 %ID/g; in data set [3] (spleen, intravenous, male athero4mo rabbits, N = 9, read-out: Tissue radioactivity, spleen), 0.012 %ID/g; in data set [3] (spleen, intravenous, male control rabbits, N = 6, read-out: Tissue radioactivity, spleen), 0.015 %ID/g; in data set [3] (stomach, intravenous, male athero4mo rabbits, N = 9, read-out: Tissue radioactivity, stomach), 0.053 %ID/g; in data set [3] (thoracic aorta, iv, male athero4mo rabbits, N = 9, read-out: Tissue radioactivity, thoracic aorta) it was 0.015 %ID/g; in data set [3] (thoracic aorta, iv, male control rabbits, N = 6, read-out: Tissue radioactivity, thoracic aorta), 0.004 %ID/g.

The record behind these values is publication PMC9007951, “Systematically evaluating DOTATATE and FDG as PET immuno-imaging tracers of cardiovascular inflammation” (Scientific Reports, 2022).
